Laboratory results published in patent US10669288B2, “Lanthanide complexes based on triethylenetetramine-N,N,N′,N″,N′″,N′″-hexaacetic acid derivatives” (UNIVERSITE D'ORLEANS, priority 2017, dated 2020).
“And” between values parts separate entries of the source, which are not always exact repeats. Equal values may be shown once.

How the values were obtained:
[1] = Photophysical properties (absorption, emission, luminescence lifetime, quantum yields) in solution; format: physicochemical
Excerpt: L1 ligand and L1Nd^3+ complex (Example 2) both have broad absorption bands which extend over a wavelength range having values as high as 750 nm with maxima centered at ˜615 and ˜670 nm and molar absorption coefficients up to 5·10^3 M^−1 cm^−1. Upon excitation of the low energy absorption bands located on L1 and on the L1Nd^3+ complex, it is possible to observe broadband emission signals from the chromophore ligand centered at ˜690 nm with a shoulder at ˜740 nm. The complex L1Nd^3+, when excited at a wavelength of 650 nm, produces a narrow emission band with a maximum at 1064 nm which is characteristic of the electronic structure of Nd^3+ resulting from the transition ^4F3/2→^4I11/2. […] As a result, ligand L1 and complex L1Nd^3+ both have excitation and emission wavelengths included in the domain of the biological diagnostic window (FIG. 1).
The quantitative luminescence parameters (luminescence lifetime (i) and luminescence quantum yields centered on L1-(QL) and on Nd^3+-(QNd)) determined on the L1Nd^3+ complex are summarized in Table 3.1.
Relatively short life time values T (in the nanosecond range) and low QNd quantum yields have been measured for the near-infrared emission of Nd^3+ in comparison with the highest corresponding values that have been published to date. […]
The quantum yield of the emission from the ligand is lower by a ratio of 30% for the Nd^3+ complex relative to the L1 ligand. […] It is important to point out that narrow Nd^3+ emission band positions are unaffected by microenvironmental changes, which is a major advantage over the “wavelength” indocyanine green commercial fluorophore. of similar excitation (Fernandez-Fernandez, R. Manchanda, T. Lei, D. A. Carvajal, Y. Tang, S. Z. Razza Kazmi, A. J. McGoron, Comparative study of the optical and heat generation properties of IR820 and indocyanine green, Molecular imaging, 11 (2012) 99 and S. Mordon, J. M. Devoisselle, S. Soulie-Begu, T. Desmetter, Indocyanine green: Physicochemical factors affecting its fluorescence in vivo, Microvascular Research, 55 (1998) 146-152).

[2] = Photostability in solution under continuous illumination at 630 nm; format: physicochemical; details: 3 h continuous illumination at 630 nm; 100 μM, HEPES pH 7.5, room temperature
Excerpt: The photostabilities of L1 and L1Nd^3+ were studied under continuous illumination at 630 nm (FIG. 2).

absorption maxima ([1]; broad absorption bands extending to 750 nm, HEPES buffer): ~615 nm and ~670 nm
QL(%) (quantum yield centered on L1) ([1]; excitation at 620 nm, emission collected 640-850 nm, 100 μM, pH = 7.5, room temperature): 0,257(5) %
broadband emission from the chromophore ligand, centre ([1]; excitation of low energy absorption bands, shoulder at ~740 nm): ~690 nm
loss of initial emission intensity [2]: ~70%
Compound: NCCNc1ccc(NCCNC(=O)CN(CCN(CCN(CCN(CC(=O)O)CC(=O)O)CC(=O)O)CC(=O)O)CC(=O)O)c2c1C(=O)c1c(O)ccc(O)c1C2=O [Compound L1, 3-(2-((2-((4-((2-aminoethyl)amino)-5,8-di hydroxy-9,10-dioxo-9,10-dihydroanthracen-1-yl)aminoacid)ethyl)amino)-2-oxoethyl)-6,9,12-tris(carboxymethyl)-3,6,9,12-tétraazatétradécane-1,14-dioic]
